# Reference: ChEMBL document CHEMBL1134146, “Development of specific CXCR4 inhibitors possessing high selectivity indexes as well as complete stability in serum based on an anti-HIV peptide T140” (Bioorg Med Chem Lett, 2001)
# Legend:
# MT4 = assay: Cytotoxic concentration of compound required to reduce the viability of mock infected MT-4 cells on the MTT assay in test I; type: functional; details: Homo sapiens
# PBMC (Homo sapiens) = assay: Cytotoxic concentration of compound determined by the […] exclusion staining method in PBMC by test II
# [1] = Selectivity index determined for CC50 (test I) to EC50 x 10e3; type: functional
Structure (SMILES),CC50 (MT4),CC50 (PBMC (Homo sapiens)),SI [1]
NCCCC[C@@H]1NC(=O)[C@H](CCCN=C(N)N)NC(=O)[C@H](Cc2ccc(O)cc2)NC(=O)[C@@H](NC(=O)[C@@H](NC(=O)[C@H](CCCN=C(N)N)NC(=O)[C@@H](N)CCCN=C(N)N)c2ccc3ccccc3c2)CSSC[C@@H](C(=O)N[C@@H](CCCN=C(N)N)C(=O)O)NC(=O)[C@H](CCCNC(N)=O)NC(=O)[C@H](CCCNC(N)=O)NC(=O)[C@H](Cc2ccc(O)cc2)NC(=O)[C@@H]2CCCN2C(=O)[C@@H](CCCNC(N)=O)NC1=O,> 100 µM,> 800 µM,
NCCCC[C@@H]1NC(=O)[C@H](CCCNC(N)=O)NC(=O)[C@H](Cc2ccc(O)cc2)NC(=O)[C@@H](NC(=O)[C@@H](NC(=O)[C@H](CCCN=C(N)N)NC(=O)[C@@H](N)CCCNC(N)=O)c2ccc3ccccc3c2)CSSC[C@@H](C(=O)N[C@@H](CCCN=C(N)N)C(N)=O)NC(=O)[C@H](CCCNC(N)=O)NC(=O)[C@H](CCCN=C(N)N)NC(=O)[C@H](Cc2ccc(O)cc2)NC(=O)[C@@H]2CCCN2C(=O)[C@@H](CCCCN)NC1=O,> 100 µM,350 µM,
NCCCC[C@@H]1NC(=O)[C@H](CCCN=C(N)N)NC(=O)[C@H](Cc2ccc(O)cc2)NC(=O)[C@@H](NC(=O)[C@@H](NC(=O)[C@H](CCCN=C(N)N)NC(=O)[C@@H](N)CCCN=C(N)N)c2ccc3ccccc3c2)CSSC[C@@H](C(=O)N[C@@H](CCCN=C(N)N)C(N)=O)NC(=O)[C@H](CCCNC(N)=O)NC(=O)[C@H](CCCN=C(N)N)NC(=O)[C@H](Cc2ccc(O)cc2)NC(=O)[C@@H]2CCCN2C(=O)[C@@H](CCCNC(N)=O)NC1=O,> 100 µM,98 µM,
NCCCC[C@@H]1NC(=O)[C@H](CCCN=C(N)N)NC(=O)[C@H](Cc2ccc(O)cc2)NC(=O)[C@@H](NC(=O)[C@@H](NC(=O)[C@H](CCCN=C(N)N)NC(=O)[C@@H](N)CCCNC(N)=O)c2ccc3ccccc3c2)CSSC[C@@H](C(=O)N[C@@H](CCCN=C(N)N)C(=O)O)NC(=O)[C@H](CCCNC(N)=O)NC(=O)[C@H](CCCN=C(N)N)NC(=O)[C@H](Cc2ccc(O)cc2)NC(=O)[C@@H]2CCCN2C(=O)[C@@H](CCCNC(N)=O)NC1=O,> 100 µM,> 800 µM,
NCCCC[C@@H]1NC(=O)[C@H](CCCNC(N)=O)NC(=O)[C@H](Cc2ccc(O)cc2)NC(=O)[C@@H](NC(=O)[C@@H](NC(=O)[C@H](CCCN=C(N)N)NC(=O)[C@@H](N)CCCN=C(N)N)c2ccc3ccccc3c2)CSSC[C@@H](C(=O)N[C@@H](CCCN=C(N)N)C(N)=O)NC(=O)[C@H](CCCNC(N)=O)NC(=O)[C@H](CCCNC(N)=O)NC(=O)[C@H](Cc2ccc(O)cc2)NC(=O)[C@@H]2CCCN2C(=O)[C@@H](CCCCN)NC1=O,> 100 µM,> 400 µM,
NCCCC[C@@H]1NC(=O)[C@H](CCCNC(N)=O)NC(=O)[C@H](Cc2ccc(O)cc2)NC(=O)[C@@H](NC(=O)[C@@H](NC(=O)[C@H](CCCN=C(N)N)NC(=O)[C@@H](N)CCCN=C(N)N)c2ccc3ccccc3c2)CSSC[C@@H](C(=O)N[C@@H](CCCN=C(N)N)C(N)=O)NC(=O)[C@H](CCCNC(N)=O)NC(=O)[C@H](CCCN=C(N)N)NC(=O)[C@H](Cc2ccc(O)cc2)NC(=O)[C@@H]2CCCN2C(=O)[C@@H](CCCCN)NC1=O,> 100 µM,410 µM,
NCCCC[C@@H]1NC(=O)[C@H](CCCNC(N)=O)NC(=O)[C@H](Cc2ccc(O)cc2)NC(=O)[C@@H](NC(=O)[C@@H](NC(=O)[C@H](CCCN=C(N)N)NC(=O)[C@@H](N)CCCN=C(N)N)c2ccc3ccccc3c2)CSSC[C@@H](C(=O)N[C@@H](CCCN=C(N)N)C(=O)O)NC(=O)[C@H](CCCNC(N)=O)NC(=O)[C@H](CCCN=C(N)N)NC(=O)[C@H](Cc2ccc(O)cc2)NC(=O)[C@@H]2CCCN2C(=O)[C@@H](CCCCN)NC1=O,> 80 µM,510 µM,
NCCCC[C@@H]1NC(=O)[C@H](CCCN=C(N)N)NC(=O)[C@H](Cc2ccc(O)cc2)NC(=O)[C@@H](NC(=O)[C@@H](NC(=O)[C@H](CCCN=C(N)N)NC(=O)[C@@H](N)CCCNC(N)=O)c2ccc3ccccc3c2)CSSC[C@@H](C(=O)N[C@@H](CCCN=C(N)N)C(N)=O)NC(=O)[C@H](CCCNC(N)=O)NC(=O)[C@H](CCCN=C(N)N)NC(=O)[C@H](Cc2ccc(O)cc2)NC(=O)[C@@H]2CCCN2C(=O)[C@@H](CCCNC(N)=O)NC1=O,> 100 µM,500 µM,
NCCCC[C@@H]1NC(=O)[C@H](CCCNC(N)=O)NC(=O)[C@H](Cc2ccc(O)cc2)NC(=O)[C@@H](NC(=O)[C@@H](NC(=O)[C@H](CCCN=C(N)N)NC(=O)[C@@H](N)CCCN=C(N)N)c2ccc3ccccc3c2)CSSC[C@@H](C(=O)N[C@@H](CCCN=C(N)N)C(=O)O)NC(=O)[C@H](CCCNC(N)=O)NC(=O)[C@H](CCCN=C(N)N)NC(=O)[C@H](Cc2ccc(O)cc2)NC(=O)[C@@H]2CCCN2C(=O)[C@@H](CCCNC(N)=O)NC1=O,> 100 µM,> 800 µM,
Nc1ccn([C@H]2CC[C@@H](CO)O2)c(=O)n1 [ZALCITABINE],14 µM,,0.16
NCCCC[C@@H]1NC(=O)[C@H](CCCN=C(N)N)NC(=O)[C@H](Cc2ccc(O)cc2)NC(=O)[C@@H](NC(=O)[C@@H](NC(=O)[C@H](CCCN=C(N)N)NC(=O)[C@@H](N)CCCN=C(N)N)c2ccc3ccccc3c2)CSSC[C@@H](C(=O)N[C@@H](CCCN=C(N)N)C(N)=O)NC(=O)[C@H](CCCNC(N)=O)NC(=O)[C@H](CCCNC(N)=O)NC(=O)[C@H](Cc2ccc(O)cc2)NC(=O)[C@@H]2CCCN2C(=O)[C@@H](CCCNC(N)=O)NC1=O,> 100 µM,680 µM,
NCCCC[C@@H]1NC(=O)[C@H](CCCN=C(N)N)NC(=O)[C@H](Cc2ccc(O)cc2)NC(=O)[C@@H](NC(=O)[C@@H](NC(=O)[C@H](CCCN=C(N)N)NC(=O)[C@@H](N)CCCNC(N)=O)c2ccc3ccccc3c2)CSSC[C@@H](C(=O)N[C@@H](CCCN=C(N)N)C(N)=O)NC(=O)[C@H](CCCNC(N)=O)NC(=O)[C@H](CCCNC(N)=O)NC(=O)[C@H](Cc2ccc(O)cc2)NC(=O)[C@@H]2CCCN2C(=O)[C@@H](CCCCN)NC1=O,> 100 µM,470 µM,
NCCCC[C@@H]1NC(=O)[C@H](CCCNC(N)=O)NC(=O)[C@H](Cc2ccc(O)cc2)NC(=O)[C@@H](NC(=O)[C@@H](NC(=O)[C@H](CCCN=C(N)N)NC(=O)[C@@H](N)CCCNC(N)=O)c2ccc3ccccc3c2)CSSC[C@@H](C(=O)N[C@@H](CCCN=C(N)N)C(=O)O)NC(=O)[C@H](CCCNC(N)=O)NC(=O)[C@H](CCCN=C(N)N)NC(=O)[C@H](Cc2ccc(O)cc2)NC(=O)[C@@H]2CCCN2C(=O)[C@@H](CCCCN)NC1=O,> 100 µM,> 800 µM,
NCCCC[C@@H]1NC(=O)[C@@H](CCCCN)NC(=O)[C@H](CCCN=C(N)N)NC(=O)[C@@H](Cc2ccc(O)cc2)NC(=O)[C@H](NC(=O)[C@@H](NC(=O)[C@H](CCCN=C(N)N)NC(=O)[C@@H](N)CCCN=C(N)N)c2ccc3ccccc3c2)CSSC[C@H](C(=O)N[C@@H](CCCN=C(N)N)C(N)=O)NC(=O)[C@H](CCCNC(N)=O)NC(=O)[C@H](CCCN=C(N)N)NC(=O)[C@H](Cc2ccc(O)cc2)NC(=O)[C@H]2CCCN2C1=O,,,0.14
NCCCC[C@@H]1NC(=O)[C@H](CCCN=C(N)N)NC(=O)[C@H](Cc2ccc(O)cc2)NC(=O)[C@@H](NC(=O)[C@@H](NC(=O)[C@H](CCCN=C(N)N)NC(=O)[C@@H](N)CCCN=C(N)N)c2ccc3ccccc3c2)CSSC[C@@H](C(=O)N[C@@H](CCCN=C(N)N)C(N)=O)NC(=O)[C@H](CCCNC(N)=O)NC(=O)[C@H](CCCN=C(N)N)NC(=O)[C@H](Cc2ccc(O)cc2)NC(=O)[C@@H]2CCCN2C(=O)[C@@H](CCCCN)NC1=O,10 µM,,
